{"source": "paper PMC12446458", "about": "“Structural basis for DNA break sensing by human MRE11-RAD50-NBS1 and its regulation by telomeric factor TRF2” (Nature Communications, 2025)", "molecules": {"B1": {"name": "64 bp Myb DNA, 6-FAM (dsDNA)", "DNA 1": "TCTAGGGTTAGGGTTAGATTAACGCTTCTGGAGAAACTCAACGAGCTCTAACCCTAACCCTAGA", "DNA 2": "TCTAGGGTTAGGGTTAGAGCTCGTTGAGTTTCTCCAGAAGCGTTAATCTAACCCTAACCCTAGA"}}, "key": {"[1]": {"target": "T1, MRN complex (human MRE11-RAD50-NBS1) (Homo sapiens, UniProt Q92878)", "T1 construct": "Expi293F (MRE11 H129N) or Hi5 insect cells (wild type); with Double-strand break repair protein MRE11; Nibrin", "T1 sequence (Q92878 1-1312)": "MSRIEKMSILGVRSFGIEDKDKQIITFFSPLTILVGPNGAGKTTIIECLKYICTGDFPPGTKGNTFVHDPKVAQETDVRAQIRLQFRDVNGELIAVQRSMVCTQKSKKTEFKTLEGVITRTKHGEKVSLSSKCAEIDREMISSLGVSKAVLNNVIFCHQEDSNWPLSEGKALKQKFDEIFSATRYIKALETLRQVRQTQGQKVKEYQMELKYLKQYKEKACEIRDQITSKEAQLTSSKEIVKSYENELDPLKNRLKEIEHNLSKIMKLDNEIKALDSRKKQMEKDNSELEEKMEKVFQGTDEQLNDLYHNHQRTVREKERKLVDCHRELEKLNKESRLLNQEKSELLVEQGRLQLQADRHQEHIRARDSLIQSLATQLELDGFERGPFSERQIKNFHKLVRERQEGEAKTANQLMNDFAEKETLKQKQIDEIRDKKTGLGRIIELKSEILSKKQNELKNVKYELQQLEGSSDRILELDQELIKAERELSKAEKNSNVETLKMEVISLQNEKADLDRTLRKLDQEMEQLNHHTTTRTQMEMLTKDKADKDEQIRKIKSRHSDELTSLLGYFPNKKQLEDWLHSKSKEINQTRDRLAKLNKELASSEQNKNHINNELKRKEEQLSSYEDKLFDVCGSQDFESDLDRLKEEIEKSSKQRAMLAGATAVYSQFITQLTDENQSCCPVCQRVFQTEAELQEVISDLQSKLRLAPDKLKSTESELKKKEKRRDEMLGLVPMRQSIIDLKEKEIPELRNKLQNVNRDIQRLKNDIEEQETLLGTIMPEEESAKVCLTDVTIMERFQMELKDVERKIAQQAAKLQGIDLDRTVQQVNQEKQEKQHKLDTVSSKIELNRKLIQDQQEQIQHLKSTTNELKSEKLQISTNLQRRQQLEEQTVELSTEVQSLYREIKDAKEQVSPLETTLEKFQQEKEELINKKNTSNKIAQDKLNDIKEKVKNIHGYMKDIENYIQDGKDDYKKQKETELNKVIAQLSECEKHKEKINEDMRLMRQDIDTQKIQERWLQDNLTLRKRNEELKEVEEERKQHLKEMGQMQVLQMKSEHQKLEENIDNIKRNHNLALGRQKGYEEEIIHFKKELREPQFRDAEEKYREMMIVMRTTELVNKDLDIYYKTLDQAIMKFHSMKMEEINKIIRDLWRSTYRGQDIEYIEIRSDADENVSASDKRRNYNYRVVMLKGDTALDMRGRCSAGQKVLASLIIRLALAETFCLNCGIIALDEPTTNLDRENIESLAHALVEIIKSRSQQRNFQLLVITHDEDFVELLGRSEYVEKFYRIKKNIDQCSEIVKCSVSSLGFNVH", "T1 sequence (P49959 2-708 partner)": "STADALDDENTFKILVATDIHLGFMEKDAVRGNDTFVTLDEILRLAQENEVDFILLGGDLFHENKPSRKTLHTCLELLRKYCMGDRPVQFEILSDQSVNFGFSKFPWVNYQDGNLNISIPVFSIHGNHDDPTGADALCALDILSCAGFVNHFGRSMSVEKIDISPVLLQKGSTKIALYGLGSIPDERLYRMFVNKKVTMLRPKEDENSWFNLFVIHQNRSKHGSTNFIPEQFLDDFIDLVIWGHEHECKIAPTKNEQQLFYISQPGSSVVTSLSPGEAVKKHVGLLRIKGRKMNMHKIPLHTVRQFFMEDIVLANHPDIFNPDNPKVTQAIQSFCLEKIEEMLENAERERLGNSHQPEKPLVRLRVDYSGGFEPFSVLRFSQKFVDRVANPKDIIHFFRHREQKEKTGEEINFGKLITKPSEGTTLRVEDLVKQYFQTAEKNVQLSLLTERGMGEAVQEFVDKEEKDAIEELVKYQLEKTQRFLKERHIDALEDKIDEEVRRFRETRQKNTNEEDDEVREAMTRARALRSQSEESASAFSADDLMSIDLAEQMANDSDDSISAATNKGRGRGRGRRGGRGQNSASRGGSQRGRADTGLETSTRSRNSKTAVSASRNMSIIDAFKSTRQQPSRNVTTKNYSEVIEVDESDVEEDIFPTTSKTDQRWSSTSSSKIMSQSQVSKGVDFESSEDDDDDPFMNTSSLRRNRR", "T1 sequence (O60934 1-754 partner)": "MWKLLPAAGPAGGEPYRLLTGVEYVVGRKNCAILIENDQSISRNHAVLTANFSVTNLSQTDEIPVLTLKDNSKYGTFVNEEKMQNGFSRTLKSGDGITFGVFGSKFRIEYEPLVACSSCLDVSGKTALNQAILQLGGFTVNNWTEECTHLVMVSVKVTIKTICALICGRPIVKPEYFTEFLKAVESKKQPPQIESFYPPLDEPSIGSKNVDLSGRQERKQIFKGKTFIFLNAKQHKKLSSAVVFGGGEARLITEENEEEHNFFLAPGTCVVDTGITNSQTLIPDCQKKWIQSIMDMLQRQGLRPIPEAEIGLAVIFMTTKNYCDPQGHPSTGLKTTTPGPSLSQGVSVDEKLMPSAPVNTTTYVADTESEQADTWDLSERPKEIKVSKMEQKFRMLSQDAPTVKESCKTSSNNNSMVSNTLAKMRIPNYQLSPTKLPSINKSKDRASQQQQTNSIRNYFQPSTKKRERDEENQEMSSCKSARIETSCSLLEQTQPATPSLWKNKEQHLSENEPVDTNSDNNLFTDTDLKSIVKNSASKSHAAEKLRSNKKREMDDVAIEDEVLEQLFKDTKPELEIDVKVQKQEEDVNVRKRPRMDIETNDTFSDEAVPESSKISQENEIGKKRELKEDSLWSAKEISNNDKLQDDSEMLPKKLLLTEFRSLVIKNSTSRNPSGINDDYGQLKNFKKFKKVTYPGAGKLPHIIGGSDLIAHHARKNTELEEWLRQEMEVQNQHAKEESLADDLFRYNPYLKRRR", "experiment": "NADH-coupled ATPase assay", "type": "biochemical", "conditions": "0.15 mM ATP, 2 mM MgCl2, 1 mM MnCl2, pH 7.5, 37 °C; with and without 64 bp Myb DNA; rate in figure only; MRE11 wild type or H129N not clearly told for this assay"}, "[2]": {"target": "T2, MR complex (human MRE11-RAD50) (Homo sapiens, UniProt Q92878)", "T2 construct": "MR complex, no NBS1; with Double-strand break repair protein MRE11", "T2 sequence (Q92878 1-1312)": "T1 sequence (Q92878 1-1312)", "T2 sequence (P49959 2-708 partner)": "T1 sequence (P49959 2-708 partner)", "experiment": "NADH-coupled ATPase assay", "type": "biochemical", "conditions": "0.15 mM ATP, 2 mM MgCl2, 1 mM MnCl2, pH 7.5, 37 °C; with and without 64 bp Myb DNA; rate in figure only"}, "TRF2 full length": {"target": "TRF2 full length (Homo sapiens, UniProt Q15554 1-542)", "sequence (Q15554 whole entry)": "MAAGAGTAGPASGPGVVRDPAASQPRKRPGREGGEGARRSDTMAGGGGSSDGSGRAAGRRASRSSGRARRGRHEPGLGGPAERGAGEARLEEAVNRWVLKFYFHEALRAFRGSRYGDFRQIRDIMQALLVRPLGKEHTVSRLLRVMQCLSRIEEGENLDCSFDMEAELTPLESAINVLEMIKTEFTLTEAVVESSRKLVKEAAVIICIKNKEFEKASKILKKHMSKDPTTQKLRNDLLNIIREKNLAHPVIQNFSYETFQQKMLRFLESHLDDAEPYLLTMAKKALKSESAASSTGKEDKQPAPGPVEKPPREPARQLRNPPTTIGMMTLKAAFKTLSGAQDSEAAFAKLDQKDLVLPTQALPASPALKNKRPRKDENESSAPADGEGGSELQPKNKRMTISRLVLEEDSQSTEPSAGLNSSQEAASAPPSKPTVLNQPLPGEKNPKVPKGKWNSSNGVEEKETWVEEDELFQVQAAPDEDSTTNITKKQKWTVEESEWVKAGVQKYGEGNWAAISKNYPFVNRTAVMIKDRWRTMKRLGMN", "experiment": "fluorescence anisotropy; 1 mM ATP, 5 mM Mg2+; two specific binding sites fit; FA: 25 mM HEPES pH 8.0, 100 mM NaCl, 5 mM MgCl2, 0.2 mg/ml BSA, 1 mM DTT, 1 mM ATP unless stated, 30 nM 6-FAM DNA, read over 30 min; temperature not stated", "conditions": "protein: recombinant; tags: MBP removed (3C); C-terminal His10; chain copies: 2; blunt"}}}
{"molecule": "Nc1ncnc2c1ncn2[C@@H]1O[C@H](COP(=O)(O)OP(=O)(O)OP(=O)(O)O)[C@@H](O)[C@H]1O", "note": "[ATP]", "values": [{"measurement": "NADH-coupled ATPase assay", "setting": "[1]", "value": "The purified MRN complex showed the characteristic DNA-stimulated ATPase activity"}, {"measurement": "NADH-coupled ATPase assay", "setting": "[2]", "value": "ATPase activity of MR(N) complex stimulated by DNA binding"}]}
{"molecule": "B1", "values": [{"measurement": "Kd", "setting": "TRF2 full length", "value": 121, "unit": "nM"}]}
